Reference: patent US20210261621A1, “Preparation of Dilipid Polymixins and Use Thereof as Antimicrobial Adjuvants” (priority 2018, published 2021)
Read-outs that look alike come from different tables or passages of the source. Positions of bridges follow the written chain, without caps; N, C: chain ends. Non-standard residues stand in square brackets, D forms with d. Residues, ends and D or L forms follow the SMILES beside them. *: point of attachment. Dab = NCC[C@H](N)C(=O)O; Butyryl = CCCC(=O)*

How the values were obtained:
[1] = test system: E. coli CANWARD-2011 97615; format: cell-based, Escherichia coli
From the text: Bacterial strains were either obtained from the American Type Culture Collection (ATCC), Canadian National Intensive Care Unit (CAN-ICU) surveillance study or the Canadian Ward Surveillance (CANWARD) study. Strains from both CAN-ICU and CANWARD are isolates recovered from patients diagnosed with a presumed infectious disease that were admitted in a participating medical center across Canada. Efflux-deficient strain PAO200 (lacking MexAB-OprM efflux system) and PA0750 (lacking MexAB-OprM, MexCD-OprJ, MexEF-OprN, MexJK and MexXY efflux systems, and the outer membrane protein OpmH) were kindly gifted by Dr. Ayush Kumar (University of Manitoba).
The in vitro antibacterial activity of the compounds studied were assessed by broth microdilution susceptibility testing following CLSI guidelines. Bacterial cultures were grown overnight prior to the assay. The overnight grown cultures were diluted in saline to 0.5 McFarland turbidity, followed by 1:50 dilution in Mueller-Hinton broth (MHB) for inoculation to a final concentration of approximately 5×10^5 colony forming units/mL. Testing was performed on 96-well plates where the tested compounds were 2-fold serially diluted in MHB and incubated with equal volumes of bacterial inoculum at 37° C. for 18 h. […] Wells containing MHB with or without bacterial cells were used as positive or negative control, respectively.

P. aeruginosa PAO1 = test system: P. aeruginosa PAO1; parameters: MICDrug / MICDrug in combo / MIC of adjuvant in combo: unit not given beside the values
pig erythrocytes = details: red cells of pig, 1 h, 512
Protocol: The ability of the compounds to lyse eukaryotic red blood cells was measured by the amount of hemoglobin released upon incubation with pig erythrocytes, following a published protocol [30]. Briefly, fresh pig blood (generously provided by Dr. Richard Hodges, Director of Animal Care and Veterinary Services of the University of Manitoba) drawn from a pig's antecubital vein was centrifuged at 1000 g for 5 min at 4° C., washed with phosphate-buffered saline (PBS) three times, and re-suspended in the same buffer, consecutively. Compounds at study were 2-fold serially diluted in PBS on a 96-well plate and mixed with equal volumes of erythrocyte solution. Post 1 h incubation at 37° C., the intact cells were pelleted by centrifugation at 1000 g for 5 min at 4° C. Resulting supernatant was then transferred to a new 96-well plate. The hemoglobin released was then measured via an EMax Plus microplate reader (Molecular Devices, USA) at 570 nm wavelength. Erythrocytes in PBS with or without 0.1% Triton X-100 were used as positive or negative control, respectively.

## CCCC(=O)NCC[C@H](NC(=O)CCC)C(=O)N[C@H](C(=O)N[C@@H](CCN)C(=O)N[C@H]1CCNC(=O)[C@H]([C@@H](C)O)NC(=O)[C@H](CCN)NC(=O)[C@H](CCN)NC(=O)[C@H](CC(C)C)NC(=O)[C@@H](Cc2ccccc2)NC(=O)[C@H](CCN)NC1=O)[C@@H](C)O [Compound 1, Dibutyric Acid (Di-C4) Polymyxin] (Butyryl-[Dab](Butyryl)T[Dab][Dab][Dab][dF]L[Dab][Dab]T; lactam 4-C)
[1]
  MIC: >128 µg/mL
P. aeruginosa PAO1; adjuvant alone, one value per checkerboard, in µg/mL
  MIC of adjuvant alone (MIC1, MIC2, MIC3, MIC4, MIC5, MICPMBN): 128
P. aeruginosa PAO1; combination with Aztreonam
  Interpretation: Synergy (An FIC index of ≤0.5, 0.5<x≤4, or >4 denotes for synergistic, additive or antagonistic interaction, respectively)
P. aeruginosa PAO1; combination with Ceftazidime
  Interpretation: Synergy (An FIC index of ≤0.5, 0.5<x≤4, or >4 denotes for synergistic, additive or antagonistic interaction, respectively)
P. aeruginosa PAO1; combination with Chloramphenicol
  Interpretation: Synergy (An FIC index of ≤0.5, 0.5<x≤4, or >4 denotes for synergistic, additive or antagonistic interaction, respectively)
P. aeruginosa PAO1; combination with Ciprofloxacin
  Interpretation: Synergy (An FIC index of ≤0.5, 0.5<x≤4, or >4 denotes for synergistic, additive or antagonistic interaction, respectively)
P. aeruginosa PAO1; combination with Clindamycin
  Interpretation: Synergy (An FIC index of ≤0.5, 0.5<x≤4, or >4 denotes for synergistic, additive or antagonistic interaction, respectively)
P. aeruginosa PAO1; combination with Doripenem
  Interpretation: Additive (An FIC index of ≤0.5, 0.5<x≤4, or >4 denotes for synergistic, additive or antagonistic interaction, respectively)
P. aeruginosa PAO1; combination with Doxycycline
  Interpretation: Synergy (An FIC index of ≤0.5, 0.5<x≤4, or >4 denotes for synergistic, additive or antagonistic interaction, respectively)
P. aeruginosa PAO1; combination with Fosfomycin
  Interpretation: Synergy (An FIC index of ≤0.5, 0.5<x≤4, or >4 denotes for synergistic, additive or antagonistic interaction, respectively)
P. aeruginosa PAO1; combination with Gentamicin
  Interpretation: Additive (An FIC index of ≤0.5, 0.5<x≤4, or >4 denotes for synergistic, additive or antagonistic interaction, respectively)
P. aeruginosa PAO1; combination with Linezolid
  Interpretation: Synergy (An FIC index of ≤0.5, 0.5<x≤4, or >4 denotes for synergistic, additive or antagonistic interaction, respectively)
P. aeruginosa PAO1; combination with Meropenem
  Interpretation: Synergy (An FIC index of ≤0.5, 0.5<x≤4, or >4 denotes for synergistic, additive or antagonistic interaction, respectively)
P. aeruginosa PAO1; combination with Minocycline
  Interpretation: Synergy (An FIC index of ≤0.5, 0.5<x≤4, or >4 denotes for synergistic, additive or antagonistic interaction, respectively)
P. aeruginosa PAO1; combination with Moxifloxacin
  Interpretation: Synergy (An FIC index of ≤0.5, 0.5<x≤4, or >4 denotes for synergistic, additive or antagonistic interaction, respectively)
P. aeruginosa PAO1; combination with Novobiocin
  Interpretation: Synergy (An FIC index of ≤0.5, 0.5<x≤4, or >4 denotes for synergistic, additive or antagonistic interaction, respectively)
P. aeruginosa PAO1; combination with Piperacillin
  Interpretation: Additive (An FIC index of ≤0.5, 0.5<x≤4, or >4 denotes for synergistic, additive or antagonistic interaction, respectively)
P. aeruginosa PAO1; combination with Pleuromutilin
  Interpretation: Synergy (An FIC index of ≤0.5, 0.5<x≤4, or >4 denotes for synergistic, additive or antagonistic interaction, respectively)
P. aeruginosa PAO1; combination with Rifampicin
  Interpretation: Synergy (An FIC index of ≤0.5, 0.5<x≤4, or >4 denotes for synergistic, additive or antagonistic interaction, respectively)
P. aeruginosa PAO1; combination with Streptomycin
  Interpretation: Additive (An FIC index of ≤0.5, 0.5<x≤4, or >4 denotes for synergistic, additive or antagonistic interaction, respectively)
P. aeruginosa PAO1; combination with Tobramycin
  Interpretation: Additive (An FIC index of ≤0.5, 0.5<x≤4, or >4 denotes for synergistic, additive or antagonistic interaction, respectively)
P. aeruginosa PAO1; combination with Trimethoprim
  Interpretation: Synergy (An FIC index of ≤0.5, 0.5<x≤4, or >4 denotes for synergistic, additive or antagonistic interaction, respectively)
P. aeruginosa PAO1; combination with Vancomycin
  Interpretation: Synergy (An FIC index of ≤0.5, 0.5<x≤4, or >4 denotes for synergistic, additive or antagonistic interaction, respectively)
P. aeruginosa PAO1; in combination with Aztreonam
  MIC of adjuvant in combo: (32)
P. aeruginosa PAO1; in combination with Ceftazidime
  MIC of adjuvant in combo: (32)
P. aeruginosa PAO1; in combination with Chloramphenicol
  MIC of adjuvant in combo: (4)
P. aeruginosa PAO1; in combination with Ciprofloxacin
  MIC of adjuvant in combo: (32)
P. aeruginosa PAO1; in combination with Clindamycin
  MIC of adjuvant in combo: (8)
P. aeruginosa PAO1; in combination with Doripenem
  MIC of adjuvant in combo: (32)
P. aeruginosa PAO1; in combination with Doxycycline
  MIC of adjuvant in combo: (2)
P. aeruginosa PAO1; in combination with Fosfomycin
  MIC of adjuvant in combo: (16)
P. aeruginosa PAO1; in combination with Gentamicin
  MIC of adjuvant in combo: (0.0625)
P. aeruginosa PAO1; in combination with Linezolid
  MIC of adjuvant in combo: (4)
P. aeruginosa PAO1; in combination with Meropenem
  MIC of adjuvant in combo: (32)
P. aeruginosa PAO1; in combination with Minocycline
  MIC of adjuvant in combo: (2)
P. aeruginosa PAO1; in combination with Moxifloxacin
  MIC of adjuvant in combo: (16)
P. aeruginosa PAO1; in combination with Novobiocin
  MIC of adjuvant in combo: (8)
P. aeruginosa PAO1; in combination with Piperacillin
  MIC of adjuvant in combo: (32)
P. aeruginosa PAO1; in combination with Pleuromutilin
  MIC of adjuvant in combo: (8)
P. aeruginosa PAO1; in combination with Rifampicin
  MIC of adjuvant in combo: (2)
P. aeruginosa PAO1; in combination with Streptomycin
  MIC of adjuvant in combo: (32)
P. aeruginosa PAO1; in combination with Tobramycin
  MIC of adjuvant in combo: (0.5)
P. aeruginosa PAO1; in combination with Trimethoprim
  MIC of adjuvant in combo: (16)
P. aeruginosa PAO1; in combination with Vancomycin
  MIC of adjuvant in combo: (32)
Pig erythrocytes
  % Hemolysis at 512 μg/mL of polymyxin: 1.1 ± 1.6%
